From patent US20240018161A1, “MODULATORS OF CYSTIC FIBROSIS TRANSMEMBRANE CONDUCTANCE REGULATOR” (VERTEX PHARMACEUTICALS INCORPORATED, priority 2020, published 2024)
Like-named read-outs stand apart in the source and are kept apart here.

Molecular target: CFTR-mediated chloride transport in human intestinal epithelial enteroid cells (Homo sapiens, UniProt P13569)
Assay: Membrane potential dye, Enteroid Assay A
Assay type: cell-based
Conditions: for EC50: read-out: Ent. A EC50
Experimental: Base medium (ADF+++) consisted of Advanced DMEM/Ham's F12, 2 mM Glutamax, 10 mM HEPES, […] penicillin/streptomycin.
Bath 1 Buffer consisted of 1 mM MgCl2, 160 mM NaCl, 4.5 mM KCl, 10 mM HEPES, 10 mM Glucose, 2 mM CaCl2.
Chloride Free Buffer consisted of 1 mM Magnesium Gluconate, 2 mM Calcium Gluconate, 4.5 mM Potassium Gluconate, 160 mM Sodium Gluconate, 10 mM HEPES, 10 mM Glucose.
Bath1 Dye Solution consisted of Bath 1 Buffer, 0.04% Pluronic F127, 20 μM Methyl Oxonol, 30 μM CaCCinh-A01, 30 μM Chicago Sky Blue.
Chloride Free Dye Solution consisted of Chloride Free Buffer, 0.04% Pluronic F127, 20 μM Methyl Oxonol, 30 μM CaCCinh-A01, 30 μM Chicago Sky Blue.
3. Enteroid Cell Harvesting and Seeding
Cells were recovered in cell recovery solution, collected by centrifugation at 650 rpm for 5 min at 4° C., resuspended in TryPLE and incubated for 5 min at 37° C. Cells were then collected by centrifugation at 650 rpm for 5 min at 4° C. and resuspended in IEMM containing 10 μM ROCK inhibitor (RI).
4. Membrane Potential Dye, Enteroid Assay A
Briefly, cells were washed 5 times in Bath 1 Buffer. Bath 1 Dye Solution was added, and the cells were incubated for 25 min at room temperature. Following dye incubation, cells were washed 3 times in Chloride Free Dye Solution. Chloride transport was initiated by addition of Chloride Free Dye Stimulation Solution and the fluorescence signal was read for 15 min. […] Chloride transport was then expressed as a percentage of the chloride transport following treatment with 3 μM N-[(6-amino-2-pyridyl)sulfonyl]-6-(3-fluoro-5-isobutoxy-phenyl)-2-[(4S)-2,2,4-trimethylpyrrolidin-1-yl]pyridine-3-carboxamide, 3 μM (R)-1-(2,2-difluorobenzo[d][1,3]dioxol-5-yl)-N-(1-(2,3-dihydroxypropyl)-6-fluoro-2-(1-hydroxy-2-methylpropan-2-yl)-1H-indol-5-yl)cyclopropanecarboxamide and 300 nM acute N-[2,4-bis(1,1-dimethylethyl)-5-hydroxyphenyl]-1,4-dihydro-4-oxoquinoline-3-carboxamide triple combination control (% Activity).

[1] = enteroid cells incubated with test compound 18-24 hours, acute 10 μM forskolin and 300 nM N-[2,4-bis(1,1-dimethylethyl)-5-hydroxyphenyl]-1,4-dihydro-4-oxoquinoline-3-carboxamide
[2] = percentage of chloride transport of triple combination control (3 μM N-[(6-amino-2-pyridyl)sulfonyl]-6-(3-fluoro-5-isobutoxy-phenyl)-2-[(4S)-2,2,4-trimethylpyrrolidin-1-yl]pyridine-3-carboxamide based)

Chain of CFTR-mediated chloride transport in human intestinal epithelial enteroid cells (P13569 with tags, fused parts or gaps DEL508-508): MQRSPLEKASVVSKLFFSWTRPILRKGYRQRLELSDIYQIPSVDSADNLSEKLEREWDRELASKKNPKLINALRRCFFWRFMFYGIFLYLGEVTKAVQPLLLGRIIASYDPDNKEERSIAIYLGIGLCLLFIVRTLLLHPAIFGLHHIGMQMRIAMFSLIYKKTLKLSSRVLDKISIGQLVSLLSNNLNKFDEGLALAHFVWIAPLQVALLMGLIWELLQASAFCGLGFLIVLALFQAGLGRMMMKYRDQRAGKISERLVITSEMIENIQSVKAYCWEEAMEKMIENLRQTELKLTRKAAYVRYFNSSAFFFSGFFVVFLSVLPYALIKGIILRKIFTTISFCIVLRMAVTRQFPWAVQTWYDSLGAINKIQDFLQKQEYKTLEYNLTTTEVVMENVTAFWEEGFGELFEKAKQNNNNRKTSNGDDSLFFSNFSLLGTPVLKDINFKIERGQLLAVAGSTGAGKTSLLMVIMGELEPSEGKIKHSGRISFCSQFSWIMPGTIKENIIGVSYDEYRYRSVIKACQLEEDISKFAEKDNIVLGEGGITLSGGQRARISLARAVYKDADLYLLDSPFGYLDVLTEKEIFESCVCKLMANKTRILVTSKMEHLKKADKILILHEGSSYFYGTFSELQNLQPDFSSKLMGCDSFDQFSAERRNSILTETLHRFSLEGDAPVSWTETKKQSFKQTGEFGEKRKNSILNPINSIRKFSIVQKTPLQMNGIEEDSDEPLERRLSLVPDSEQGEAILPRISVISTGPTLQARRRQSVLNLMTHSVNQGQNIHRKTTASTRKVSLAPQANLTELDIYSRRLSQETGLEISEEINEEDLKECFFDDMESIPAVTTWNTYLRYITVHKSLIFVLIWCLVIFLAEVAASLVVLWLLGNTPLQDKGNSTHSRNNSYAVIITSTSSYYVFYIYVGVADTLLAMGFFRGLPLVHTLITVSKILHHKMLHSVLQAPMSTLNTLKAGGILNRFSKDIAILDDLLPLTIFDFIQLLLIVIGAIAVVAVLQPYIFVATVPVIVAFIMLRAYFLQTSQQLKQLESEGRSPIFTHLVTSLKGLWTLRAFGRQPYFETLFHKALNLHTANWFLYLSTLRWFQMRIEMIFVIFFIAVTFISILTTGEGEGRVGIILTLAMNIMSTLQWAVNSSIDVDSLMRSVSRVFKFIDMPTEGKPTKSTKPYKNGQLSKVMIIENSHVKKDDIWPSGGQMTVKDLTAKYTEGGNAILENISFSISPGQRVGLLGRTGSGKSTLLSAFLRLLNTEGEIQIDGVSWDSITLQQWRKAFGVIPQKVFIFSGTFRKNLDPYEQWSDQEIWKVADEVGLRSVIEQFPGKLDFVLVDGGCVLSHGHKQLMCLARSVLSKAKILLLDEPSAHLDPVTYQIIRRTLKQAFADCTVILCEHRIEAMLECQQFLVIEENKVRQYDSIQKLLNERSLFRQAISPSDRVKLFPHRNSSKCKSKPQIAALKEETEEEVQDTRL

Compound | Ent. A Max Activity (%) (Enteroid Assay A) | EC50 (Enteroid Assay A) | EC50 [1] | Ent. A Max Activity (%) [2]
Cc1cccc(C)c1-c1cc2nc(n1)NS(=O)(=O)c1cccc(c1)C(=O)N1CC(O2)C2CCCN(C)C2C1 (single isomer, unassigned) [Compound 202, 12-(2,6-Dimethylphenyl)-21-methyl-15-oxa-8λ^6-thia-1,9,11,21,25-pentaazapentacyclo[14.7.1.13,7.110,14.017,22]hexacosa-3,5,7(26),10(25),11,13-hexaene-2,8,8-trione] | + (+ is <30%) |  |  | 
Cc1cccc(C)c1-c1cc2nc(n1)NS(=O)(=O)c1cccc(c1)C(=O)N1CC3C(CCCN3C)[C@@H](C1)O2 (single isomer, unassigned) [Compound 203, 12-(2,6-dimethylphenyl)-21-methyl-15-oxa-8λ^6-thia-1,9,11,21,25-pentaazapentacyclo[14.7.1.13,7.110,14.017,22]hexacosa-3,5,7(26),10(25),11,13-hexaene-2,8,8-trione] | ++ (++ is 30-60%) | 3000 to 30000 nM |  | 
Cc1cccc(C)c1-c1cc2nc(n1)NS(=O)(=O)c1cccc(c1)C(=O)N1CC3C(CCCN3C)[C@H](C1)O2 (single isomer, unassigned) [Compound 204, 12-(2,6-dimethylphenyl)-21-methyl-15-oxa-8λ^6-thia-1,9,11,21,25-pentaazapentacyclo[14.7.1.13,7.110,14.017,22]hexacosa-3,5,7(26),10(25),11,13-hexaene-2,8,8-trione] |  | 1000 to 3000 nM |  | 
Cc1cccc(C)c1-c1cc2nc(n1)NS(=O)(=O)c1cccc(c1)C(=O)N1Cc3ccccc3C[C@H](C1)O2 (single isomer, unassigned) [Compound 216, 12-(2,6-dimethylphenyl)-15-oxa-8λ^6-thia-1,9,11,26-tetraazapentacyclo[14.8.1.13,7.110,14.018,23]heptacosa-3(27),4,6,10,12,14(26),18,20,22-nonaene-2,8,8-trione] |  |  | 1000 to 3000 nM | +++ (+++ is >60%)
Cc1cccc(C)c1-c1cc2nc(n1)NS(=O)(=O)c1cccc(c1)C(=O)N1CCc3ccccc3C(C1)O2 (single isomer, unassigned) [Compound 221, 12-(2,6-dimethylphenyl)-15-oxa-8λ^6-thia-1,9,11,26-tetraazapentacyclo[14.8.1.13,7.110,14.017,22]heptacosa-3(27),4,6,10(26),11,13,17,19,21-nonaene-2,8,8-trione] |  | < 1000 nM |  | 
Cc1cccc(C)c1-c1cc2nc(n1)NS(=O)(=O)c1cccc(c1)C(=O)N1CC(CC(c3ccccc3)C1)O2 (single isomer, unassigned) [Compound 223, 18-(2,6-dimethylphenyl)-5-phenyl-2-oxa-14λ^6-thia-7,15,17,20-tetraazatetracyclo[14.3.1.13,7.19,13]docosa-1(19),9(21),10,12,16(20),17-hexaene-8,14,14-trione] |  |  | < 1000 nM | ++ (++ is 30-60%)
Cc1cccc(C)c1-c1cc2nc(n1)NS(=O)(=O)c1cccc(c1)C(=O)N1CC(CC(c3ccccc3)C1)O2 (single isomer, unassigned) [Compound 224, 18-(2,6-dimethylphenyl)-5-phenyl-2-oxa-14λ^6-thia-7,15,17,20-tetraazatetracyclo[14.3.1.13,7.19,13]docosa-1(19),9(21),10,12,16(20),17-hexaene-8,14,14-trione] |  |  | < 1000 nM | ++ (++ is 30-60%)
Cc1cccc(C)c1-c1cc2nc(n1)NS(=O)(=O)c1cccc(c1)C(=O)N1CC(CCC1c1ccccc1)O2 (single isomer, unassigned) [Compound 225, 18-(2,6-dimethylphenyl)-6-phenyl-2-oxa-14λ^6-thia-7,15,17,20-tetraazatetracyclo[14.3.1.13,7.19,13]docosa-1(19),9(21),10,12,16(20),17-hexaene-8,14,14-trione] |  |  | < 1000 nM | ++ (++ is 30-60%)
Cc1cccc(C)c1-c1cc2nc(n1)NS(=O)(=O)c1cccc(c1)C(=O)N1CC(CCC1c1ccccc1)O2 (single isomer, unassigned) [Compound 226, 18-(2,6-Dimethylphenyl)-6-phenyl-2-oxa-14λ^6-thia-7,15,17,20-tetraazatetracyclo[14.3.1.13,7.19,13]docosa-1(19),9(21),10,12,16(20),17-hexaene-8,14,14-trione] |  |  | < 1000 nM | ++ (++ is 30-60%)
Cc1cccc(C)c1-c1cc2nc(n1)NS(=O)(=O)c1cccc(c1)C(=O)N1CCCC(O2)C1CC(C)C (single isomer, unassigned) [Compound 230, 18-(2,6-Dimethylphenyl)-22-(2-methylpropyl)-2-oxa-14λ^6-thia-7,15,17,20-tetraazatetracyclo[14.3.1.13,7.19,13]docosa-1(20),9(21),10,12,16,18-hexaene-8,14,14-trione] |  |  | < 1000 nM | +++ (+++ is >60%)
Cc1cccc(C)c1-c1cc2nc(n1)NS(=O)(=O)c1cccc(c1)C(=O)N1CCCC(O2)C1CC(C)C (single isomer, unassigned) [Compound 231, 18-(2,6-Dimethylphenyl)-22-(2-methylpropyl)-2-oxa-14λ^6-thia-7,15,17,20-tetraazatetracyclo[14.3.1.13,7.19,13]docosa-1(20),9(21),10,12,16,18-hexaene-8,14,14-trione] |  |  | < 1000 nM | +++ (+++ is >60%)
Cc1cccc(C)c1-c1cc2nc(n1)NS(=O)(=O)c1cccc(c1)C(=O)N1CC(C)(C)CC(O2)C1CC(C)C (single isomer, unassigned) [Compound 232, 18-(2,6-Dimethylphenyl)-5,5-dimethyl-22-(2-methylpropyl)-2-oxa-14λ^6-thia-7,15,17,20-tetraazatetracyclo[14.3.1.13,7.19,13]docosa-1(20),9(21),10,12,16,18-hexaene-8,14,14-trione] |  | < 1000 nM |  | 
Cc1cccc(C)c1-c1cc2nc(n1)NS(=O)(=O)c1cccc(c1)C(=O)N1CC(C)(C)CC(O2)C1CC(C)C (single isomer, unassigned) [Compound 233, 18-(2,6-dimethylphenyl)-5,5-dimethyl-22-(2-methylpropyl)-2-oxa-14λ^6-thia-7,15,17,20-tetraazatetracyclo[14.3.1.13,7.19,13]docosa-1(20),9(21),10,12,16,18-hexaene-8,14,14-trione] |  | < 1000 nM |  | 
Cc1cccc(C)c1-c1cc2nc(n1)NS(=N)(=O)c1cccc(c1)C(=O)N1CCN(CCC(C)(C)C)C[C@H](C1)O2 (single isomer, unassigned) [Compound 244, 18-(3,3-dimethylbutyl)-12-(2,6-dimethylphenyl)-8-imino-15-oxa-8λ^6-thia-1,9,11,18,22-pentaazatetracyclo[14.4.1.13,7.110,14]tricosa-3,5,7(23),10,12,14(22)-hexaene-2,8-dione] | + (+ is <30%) |  |  | 
Cc1cccc(C)c1-c1cc2nc(n1)NS(=O)(=O)c1cccc(c1)C(=O)N1C[C@@H](CN(CC(F)(F)F)CC1CC(C)C)O2 (stereo in doubt) [Compound 105, (16R,20R)-12-(2,6-Dimethylphenyl)-20-(2-methylpropyl)-18-(2,2,2-trifluoroethyl)-15-oxa-8λ^6-thia-1,9,11,18,22-pentaazatetracyclo[14.4.1.13,7.110,14]tricosa-3(23),4,6,10,12,14(22)-hexaene-2,8,8-trione] | + (+ is <30%) |  |  | 
Cc1cccc(C)c1-c1cc2nc(n1)NS(=O)(=O)c1cccc(c1)CN1C[C@@H](CN(Cc3ccccc3)CC1=O)O2 (stereo in doubt) [Compound 144] | ++ (++ is 30-60%) | < 1000 nM |  | 
